Reference: patent publication US9820972B2, “Antiviral compounds highly effective as HCV-NS5A inhibitor” (priority 2013, dated 2017)
pEC50: −log10 of the molar value.

Tested on: GT-1a of NS5A Replicon
Assay: HCV double reporter gene (Renilla luciferase) replicon assay, GT-1a
Format: cell-based, Hepatitis C virus (HCV)
Details: Hepatitis C virus, GT1A, GT-1a replicon; class symbols; read-out: EC50 For GT-1a of NS5A Replicon
Procedure: Antiviral Assay for Inhibition Activity (EC50):
The study is completed by a new constructed double reporter genes replicon assay system, the capacity of viral replicon in infected cell is determined by detecting the reporter gene Renilla luciferase. The relationship of reporter genes, HCV RNA replicon and viral proteins is well linear. 8 gradient concentrations for 2-fold dilution, 3 wells, 3 times repetition and 1 or 2 control drugs are set to finally determine EC50 of compound.
THF was distilled from sodium metal and benzophenone. DCM, pentane and hexane were distilled form calcium hydride. Special raw material and intermediate in the invention were ordered by contract synthesis from Zannan SciTech Co., Let in China, others reagents were purchased from Shanghai reagent company, Aldrich, Acros etc. As intermediates or products during the synthesis is not required for the reaction and other tests the next step, the synthesis is repeated until a sufficient number of times. The invention of the prepared compounds of […] (HCV NS5A) inhibitory activity test was performed by CRO service units such as WuXi AppTec etc.

Q: `CC(C)[C@H](NC(=O)OC(C)(C)C)C(=O)N1C[C@H](OC(=O)N2Cc3cccc(F)c3C2)CC1c1ncc(-c2ccc(-c3ccc(-c4c[nH]c([C@@H]5CCCN5C(=O)[C@@H](NC(=O)OC(C)(C)C)C(C)C)n4)cc3)cc2)[nH]1` (stereo partly drawn) [Compound 6t] was tested. Which pEC50 did it give?
A: < 7.30

Q: With `COC(=O)N[C@H](C(=O)N1CCC[C@H]1c1nc(-c2ccc(-c3ccc(-c4cnc([C@@H]5C[C@@H](OC(=O)N6Cc7cccc(F)c7C6)CN5C(=O)[C@@H](NC(=O)OC(C)(C)C)C(C)C)[nH]4)cc3)cc2)c[nH]1)C(C)C` [Compound 6u] as the molecule, how does the pEC50 read?
A: 7.30 to 9.00

Q: With `CN(C)C(=O)N[C@@H](C(=O)N1CC=CC1c1nc(-c2ccc(-c3ccc(-c4c[nH]c(C5CCCN5C(=O)[C@H](NC(=O)N(C)C)c5ccccc5)n4)cc3)cc2)c[nH]1)c1ccccc1` (stereo partly drawn) [Compound 6ce] as the molecule, how does the pEC50 read?
A: 9.00 to 12.00

Q: With `COC(=O)N[C@@H](C(=O)N1CC=C[C@H]1c1ncc(-c2ccc(-c3cc4sc(-c5cnc([C@@H]6CCCN6C(=O)[C@H](NC(=O)OC)c6ccccc6)[nH]5)cc4[nH]3)cc2)[nH]1)c1ccccc1` [Compound 6fx] as the molecule, how does the pEC50 read?
A: 9.00 to 12.00

Q: `COC(=O)N[C@H](C(=O)N1CC=C[C@H]1c1ncc(-c2ccc(-c3ccc(-c4cnc([C@@H]5CN(C(=O)OC(C)(C)C)CN5C(=O)[C@@H](NC(=O)OC)C5CCCCC5)[nH]4)cc3)cc2)[nH]1)C(C)C` [Compound 6cy] was tested. Which pEC50 did it give?
A: 9.00 to 12.00

Q: How did the pEC50 turn out when `COC(=O)N[C@@H](C(=O)N1CC=C[C@H]1c1ncc(-c2ccc(-c3cc4sc(-c5cnc([C@@H]6CCCN6C(=O)[C@H](NC(=O)OC)c6ccccc6)[nH]5)cc4s3)cc2)[nH]1)c1ccccc1` [Compound 6fh] was run?
A: 9.00 to 12.00

Q: With `COC(=O)N[C@H](C(=O)N1C[C@@H](OC(=O)N2Cc3ccc4c(c3C2)OCO4)CC1c1nc(-c2ccc(-c3ccc(-c4c[nH]c([C@@H]5COCCN5C(=O)[C@@H](NC(=O)OC)C(C)C)n4)cc3)cc2)c[nH]1)C(C)C` (stereo partly drawn) [Compound 6ai] as the molecule, how does the pEC50 read?
A: 9.00 to 12.00

Q: How did the pEC50 turn out when `COC(=O)N[C@H](C(=O)N1CN(C(=O)N2Cc3cc(OC)c(OC)cc3C2)CC1c1nc(-c2ccc(-c3ccc(-c4c[nH]c([C@@H]5CCCN5C(=O)[C@@H](NC(=O)OC)C(C)C)n4)cc3)cc2)c[nH]1)C(C)C` (stereo partly drawn) [Compound 6ax] was run?
A: 9.00 to 12.00

Q: With `COC(=O)N[C@H](C(=O)N1CC2(C[C@H]1c1ncc(-c3ccc(-c4ccc(-c5c[nH]c([C@@H]6C=CCN6C(=O)[C@H](NC(=O)OC)c6ccccc6)n5)cc4)cc3)[nH]1)OCCO2)C(C)C` [Compound 6dw] as the molecule, how does the pEC50 read?
A: 9.00 to 12.00

Q: With `COC(=O)N[C@H](C(=O)N1CC=C[C@H]1c1ncc(-c2ccc(-c3ccc(-c4cnc([C@@H]5CCCN5C(=O)[C@@H](NC(=O)OC)C5CCCCC5)[nH]4)cc3)cc2)[nH]1)C1CCCCC1` [Compound 6dk] as the molecule, how does the pEC50 read?
A: 9.00 to 12.00

Q: `COC(=O)N[C@H](C(=O)N1CC=CC1c1ncc(-c2ccc(-c3csc4c(-c5c[nH]c([C@@H]6CCCN6C(=O)[C@@H](NC(=O)OC)C(C)C)n5)csc34)cc2)[nH]1)C(C)C` (stereo partly drawn) [Compound 6fq] was tested. Which pEC50 did it give?
A: 9.00 to 12.00

Q: `COC(=O)N[C@H](C(=O)N1CN(C(=O)N2Cc3cccc(Cl)c3C2)CC1c1nc(-c2ccc(-c3ccc(-c4c[nH]c([C@@H]5CCCN5C(=O)[C@@H](NC(=O)OC)C(C)C)n4)cc3)cc2)c[nH]1)C(C)C` (stereo partly drawn) [Compound 6at] was tested. Which pEC50 did it give?
A: 9.00 to 12.00

Q: How did the pEC50 turn out when `COC(=O)N[C@H](C(=O)N1CC(OC(=O)N2Cc3cc4c(cc3C2)OCO4)CC1c1nc(-c2ccc3c(ccc4cc(-c5c[nH]c([C@@H]6CCCN6C(=O)[C@@H](NC(=O)OC)C(C)C)n5)ccc43)c2)c[nH]1)C(C)C` (stereo partly drawn) [Compound 6bt] was run?
A: 9.00 to 12.00

Q: `CC(C)(C)OC(=O)N[C@H](C(=O)N1CCC[C@H]1c1nc(-c2ccc(-c3ccc(-c4cnc([C@@H]5C[C@@H](OC(=O)N6Cc7cc8c(cc7C6)OCO8)CN5C(=O)[C@@H](NC(=O)OC(C)(C)C)C(C)(C)C)[nH]4)cc3)cc2)c[nH]1)C(C)(C)C` [Compound 6k] was tested. Which pEC50 did it give?
A: < 7.30

Q: With `COC(=O)N[C@H](C(=O)N1CCCC1c1nc(-c2ccc(-c3ccc(-c4c[nH]c([C@@H]5CCCN5C(=O)C5(NC(=O)OC)CCCCC5)n4)cc3)cc2)c[nH]1)C(C)C` (stereo partly drawn) [Compound 6aa] as the molecule, how does the pEC50 read?
A: 9.00 to 12.00

Q: How did the pEC50 turn out when `COC(=O)N[C@H](C(=O)N1C[C@@H](OC(=O)N2Cc3cc4c(cc3C2)OCO4)CC1c1nc(-c2ccc(-c3ccc(-c4c[nH]c([C@@H]5CCCCN5C(=O)[C@@H](NC(=O)OC)C(C)C)n4)cc3)cc2)c[nH]1)C(C)C` (stereo partly drawn) [Compound 6ac] was run?
A: 9.00 to 12.00

Q: With `COC(=O)N[C@H](C(=O)N1CC=CC1c1nc(-c2ccc(-c3ccc(-c4c[nH]c([C@@H]5CCCCN5C(=O)[C@@H](NC(=O)OC)C(C)C)n4)cc3)cc2)c[nH]1)C(C)C` (stereo partly drawn) [Compound 6bk] as the molecule, how does the pEC50 read?
A: 9.00 to 12.00

Q: `COC(=O)N[C@H](C(=O)N1CC=C[C@H]1c1nc(-c2csc3c(-c4ccc(-c5c[nH]c(C6CCCN6C(=O)[C@H](NC(=O)OC)c6ccccc6)n5)cc4)csc23)c[nH]1)C(C)C` (stereo partly drawn) [Compound 6fy] was tested. Which pEC50 did it give?
A: 9.00 to 12.00

Q: How did the pEC50 turn out when `COC(=O)NC(C(=O)N1CC=C[C@H]1c1ncc(-c2ccc(-c3ccc(-c4cnc([C@@H]5CCCN5C(=O)[C@@H](NC(=O)OC)C(C)C)[nH]4)cc3)cc2)[nH]1)C1CCCC1` (stereo partly drawn) [Compound 6dh] was run?
A: 9.00 to 12.00

Q: How did the pEC50 turn out when `COC(=O)N[C@H](C(=O)N1CC=C[C@H]1c1ncc(-c2ccc(-c3ccc(-c4cnc([C@@H]5C=CCN5C(=O)[C@@H](NC(=O)OC)C5CCCCC5)[nH]4)cc3)cc2)[nH]1)C1CCCCC1` [Compound 6dm] was run?
A: 9.00 to 12.00

Q: How did the pEC50 turn out when `COC(=O)N[C@H](C(=O)N1CN(C(=O)N2Cc3cc4c(cc3C2)OCO4)C[C@H]1c1ncc(-c2ccc(-c3cccc4c(-c5cnc([C@@H]6CCCN6C(=O)[C@@H](NC(=O)OC)C(C)C)[nH]5)cccc34)cc2)[nH]1)C(C)C` [Compound 6bv] was run?
A: < 7.30

Q: With `COC(=O)N[C@H](C(=O)N1CC(OC(=O)N2Cc3cc4c(cc3C2)OCO4)CC1c1nc(-c2ccc3c(c2)C(F)(F)c2cc(-c4c[nH]c([C@@H]5CCCN5C(=O)[C@@H](NC(=O)OC)C(C)C)n4)ccc2-3)c[nH]1)C(C)C` (stereo partly drawn) [Compound 6bp] as the molecule, how does the pEC50 read?
A: 9.00 to 12.00

Q: `COC(=O)NC(C(=O)N1CC=C[C@H]1c1ncc(-c2ccc(-c3cc4sc(-c5cnc([C@@H]6CCCN6C(=O)[C@H](NC(=O)OC)c6ccccc6)[nH]5)cc4o3)cc2)[nH]1)c1ccccc1` (stereo partly drawn) [Compound 6fw] was tested. Which pEC50 did it give?
A: 9.00 to 12.00

Q: `COC(=O)N[C@H](C(=O)N1CN(C(=O)N2Cc3ccccc3C2)CC1c1nc(-c2ccc(-c3ccc(-c4c[nH]c([C@@H]5CCCN5C(=O)[C@@H](NC(=O)OC)C(C)C)n4)cc3)cc2)c[nH]1)C(C)C` (stereo partly drawn) [Compound 6aq] was tested. Which pEC50 did it give?
A: 9.00 to 12.00

Q: How did the pEC50 turn out when `COC(=O)N[C@H](C(=O)N1CC=C[C@H]1c1ncc(-c2ccc(-c3ccc(-c4cnc([C@@H]5CCCN5C(=O)[C@@H](NC(=O)OC)C5CCCCC5)[nH]4)cc3)cc2)[nH]1)C1CCCC1` [Compound 6dn] was run?
A: 9.00 to 12.00

Q: With `COC(=O)N[C@@H](C(=O)N1CC=C[C@H]1c1nc(-c2ccc(-c3ccc(-c4cnc([C@@H]5CC6(CN5C(=O)[C@H](NC(=O)OC)c5ccccc5)OCCO6)[nH]4)cc3)cc2)c[nH]1)c1ccccc1` [Compound 6dv] as the molecule, how does the pEC50 read?
A: 9.00 to 12.00

Q: With `COC(=O)N[C@H](C(=O)N1CCC[C@H]1c1nc(-c2csc3c(-c4ccc(-c5cnc(C6C=CCN6C(=O)[C@H](NC(=O)OC)c6ccccc6)[nH]5)cc4)csc23)c[nH]1)C(C)C` (stereo partly drawn) [Compound 6fr] as the molecule, how does the pEC50 read?
A: 9.00 to 12.00

Q: `COC(=O)N[C@H](C(=O)N1CCC[C@H]1c1ncc(-c2ccc(-c3ccc(-c4cnc([C@@H]5CCCN5C(=O)[C@@H](NC(=O)N(C)C)C(C)C)[nH]4)cc3)cc2)[nH]1)C(C)C` [Compound 6de] was tested. Which pEC50 did it give?
A: 9.00 to 12.00

Q: With `COC(=O)N[C@H](C(=O)N1CN(C(=O)N2Cc3ccc(F)cc3C2)CC1c1nc(-c2ccc(-c3ccc(-c4c[nH]c([C@@H]5CCCN5C(=O)[C@@H](NC(=O)OC)C(C)C)n4)cc3)cc2)c[nH]1)C(C)C` (stereo partly drawn) [Compound 6as] as the molecule, how does the pEC50 read?
A: 9.00 to 12.00

Q: `COC(=O)N[C@H](C(=O)N1CCCC1c1nc(-c2ccc(-c3ccc(-c4c[nH]c([C@@H]5CCCN5C(=O)C5(NC(=O)OC)CC5)n4)cc3)cc2)c[nH]1)C(C)C` (stereo partly drawn) [Compound 6y] was tested. Which pEC50 did it give?
A: 9.00 to 12.00

Q: How did the pEC50 turn out when `COC(=O)NC(C(=O)N1CCC[C@H]1c1nc(-c2ccc(-c3ccc(-c4c[nH]c(C5CN(C(=O)N6Cc7ccc8c(c7C6)OCO8)CN5C(=O)[C@@H](NC(=O)OC)C(C)C)n4)cc3)cc2)c[nH]1)c1ccccc1` (stereo partly drawn) [Compound 6ay] was run?
A: 9.00 to 12.00

Q: How did the pEC50 turn out when `CC(C)(C)OC(=O)N[C@H](C(=O)N1CCC[C@H]1c1nc(-c2ccc(-c3ccc(-c4cnc([C@@H]5C[C@@H](OC(=O)N6Cc7ccc8c(c7C6)OCO8)CN5C(=O)[C@@H](NC(=O)OC(C)(C)C)C(C)(C)C)[nH]4)cc3)cc2)c[nH]1)C(C)(C)C` [Compound 6c] was run?
A: < 7.30

Same assay, conditions: Hepatitis C virus, GT1A, read-out: EC50 For GT-1a of NS5A Replicon

Q: With `COC(=O)N[C@H](C(=O)N1C[C@H](OC(=O)N2Cc3ccc4c(c3C2)OCO4)C[C@H]1c1nc(-c2ccc(-c3ccc(-c4cnc([C@@H]5C[C@@H](OC(=O)N6Cc7ccc8c(c7C6)OCO8)CN5C(=O)[C@@H](NC(=O)OC)C(C)C)[nH]4)cc3)cc2)c[nH]1)C(C)C` [Compound 6e] as the molecule, how does the pEC50 read?
A: < 7.30

Q: With `CC(C)[C@H](NC(=O)OC1CCCC1)C(=O)N1C[C@H](OC(=O)N2Cc3cc4c(cc3C2)OCO4)C[C@H]1c1nc(-c2ccc(-c3ccc(-c4cnc([C@@H]5C[C@@H](OC(=O)N6Cc7cc8c(cc7C6)OCO8)CN5C(=O)[C@@H](NC(=O)OC5CCCC5)C(C)C)[nH]4)cc3)cc2)c[nH]1` [Compound 6q] as the molecule, how does the pEC50 read?
A: < 7.30

Q: `CC(C)[C@H](NC(=O)OC(C)(C)C)C(=O)N1C[C@H](OC(=O)N2Cc3cc4c(cc3C2)OCO4)C[C@H]1c1nc(-c2ccc(-c3ccc(-c4cnc([C@@H]5C[C@@H](OC(=O)N6Cc7cc8c(cc7C6)OCO8)CN5C(=O)[C@@H](NC(=O)OC(C)(C)C)C(C)C)[nH]4)cc3)cc2)c[nH]1` [Compound 6p] was tested. Which pEC50 did it give?
A: < 7.30

Q: With `CC(C)[C@H](NC(=O)OC1CCCC1)C(=O)N1C[C@H](OC(=O)N2Cc3ccc4c(c3C2)OCO4)C[C@H]1c1nc(-c2ccc(-c3ccc(-c4cnc([C@@H]5C[C@@H](OC(=O)N6Cc7ccc8c(c7C6)OCO8)CN5C(=O)[C@@H](NC(=O)OC5CCCC5)C(C)C)[nH]4)cc3)cc2)c[nH]1` [Compound 6g] as the molecule, how does the pEC50 read?
A: < 7.30
